Test results taken from patent US6015823A, “4-Cyclohexylphenyl-oxazolines and their use for controlling animal pests” (Bayer Aktiengesellschaft, priority 1996, dated 2000).
Like-named read-outs stand apart in the source and are kept apart here.

Test: logp: n-octanol/water partition coefficient by reversed phase HPLC
Type: physicochemical
Conditions: h2o/ch3cn, read-out: logp (logarithm to base ten of the n-octanol/water partition coefficient)
Excerpt: *) logp: Logarithm to base ten of the n-octanol/water partition coefficient, determined by reversed phase HPLC analysis using H2 O/CH3 CN.
*^) logp: Logarithm to base ten of the noctanol/water partition
coefficient, determined by reversed phase HPLC analysis using H2

[1] = A isomer (possible geometric isomer)
[2] = B isomer (possible geometric isomer)

| SMILES | chromatographic logP | chromatographic logP [1] | chromatographic logP [2] |
| --- | --- | --- | --- |
| OC1CCC(c2ccc(C3COC(c4c(F)cccc4F)=N3)cc2)CC1 (single isomer, unassigned) [Example 2, 2-(2,6-difluorophenyl)-4-[4-(4-hydroxycyclohexyl)phenyl]-1,3-oxazoline] | 2.53 | – | – |
| O=C1CCC(c2ccc(C(CCl)NC(=O)c3c(F)cccc3F)cc2)CC1 (centres unmarked) [2-(2,6-difluorobenzoylamido)-2-[4-(4-oxo-cyclohexyl)phenyl]-chloroethane] | 2.54 | – | – |
| ON=C1CCC(c2ccc(C3COC(c4c(F)cccc4F)=N3)cc2)CC1 (centres unmarked) [Example 3, 2-(2,6-difluorophenyl)-4-[4-(4-oximino-cyclohexyl)phenyl]-1,3-oxazoline] | 2.57 | – | – |
| OC1CCC(c2ccc(C3COC(c4c(F)cccc4F)=N3)cc2)CC1 (centres unmarked) [Example 7] | 2.74 | – | – |
| Fc1cccc(F)c1C1=NC(c2ccc(C3CCC4(CC3)OCCO4)cc2)CO1 (centres unmarked) [Example 11] | 3.46 | – | – |
| CCCCCCCCCCCCCCCC1COC2(CCC(c3ccc(C4COC(c5c(F)cccc5F)=N4)cc3)CC2)O1 (centres unmarked) [Example 18] | 9 | – | – |
| CC1CC(C)(C)OC2(CCC(c3ccc(C4COC(c5c(F)cccc5F)=N4)cc3)CC2)O1 (centres unmarked) [Example 26] | – | 5.12 | 5.19 |
| CCC1COC2(CCC(c3ccc(C4COC(c5c(F)cccc5F)=N4)cc3)CC2)O1 (centres unmarked) [Example 27] | 4.43 | – | – |
| CCCC1COC2(CCC(c3ccc(C4COC(c5c(F)cccc5F)=N4)cc3)CC2)O1 (centres unmarked) [Example 28] | 4.52 | – | – |
| CC1CCOC2(CCC(c3ccc(C4COC(c5c(F)cccc5F)=N4)cc3)CC2)O1 (centres unmarked) [Example 29] | – | 3.95 | 3.98 |
| CCCCC1COC2(CCC(c3ccc(C4COC(c5c(F)cccc5F)=N4)cc3)CC2)O1 (centres unmarked) [Example 30] | – | 5.35 | 5.4 |
| CC1CC(C)OC2(CCC(c3ccc(C4COC(c5c(F)cccc5F)=N4)cc3)CC2)O1 (centres unmarked) [Example 31] | – | 4.52 | 4.84 |
| Fc1cccc(F)c1C1=NC(c2ccc(C3CCC4(CC3)OCCCO4)cc2)CO1 (centres unmarked) [Example 32] | 3.47 | – | – |
| CC1(C)COC2(CCC(c3ccc(C4COC(c5c(F)cccc5F)=N4)cc3)CC2)OC1 (centres unmarked) [Example 33] | 4.5 | – | – |
| CCCCCCCCC1COC2(CCC(c3ccc(C4COC(c5c(F)cccc5F)=N4)cc3)CC2)O1 (centres unmarked) [Example 34] | – | 7.19 | 7.28 |
| CCCCON=C1CCC(c2ccc(C3COC(c4c(F)cccc4F)=N3)cc2)CC1 (centres unmarked) [Example 36] | 4.95 | – | – |
| CCCC1(C)COC2(CCC(c3ccc(C4COC(c5c(F)cccc5F)=N4)cc3)CC2)OC1 (centres unmarked) [Example 37] | 5.46 | – | – |
| CCC1(CC)COC2(CCC(c3ccc(C4COC(c5c(F)cccc5F)=N4)cc3)CC2)OC1 (centres unmarked) [Example 38] | 5.4 | – | – |
| Fc1cccc(F)c1C1=NC(c2ccc(C3CCC4(CC3)OCC(c3ccc(Br)cc3)O4)cc2)CO1 (centres unmarked) [Example 39] | – | 5.36 | 5.51 |
| CC1(c2ccccc2)COC2(CCC(c3ccc(C4COC(c5c(F)cccc5F)=N4)cc3)CC2)OC1 (centres unmarked) [Example 40] | 5.11 | – | – |
| Fc1cccc(F)c1C1=NC(c2ccc(C3CCC4(CC3)OCC(COc3ccccc3)O4)cc2)CO1 (centres unmarked) [Example 41] | – | 4.73 | 4.75 |
| Cc1cc(C)cc(OCC2COC3(CCC(c4ccc(C5COC(c6c(F)cccc6F)=N5)cc4)CC3)O2)c1 (centres unmarked) [Example 42] | – | 5.44 | 5.48 |
| Fc1cccc(F)c1C1=NC(c2ccc(C3CCC4(CC3)OCC(c3c(F)cccc3F)O4)cc2)CO1 (centres unmarked) [Example 43] | – | 4.77 | 4.86 |
| COc1ccc(C2COC3(CCC(c4ccc(C5COC(c6c(F)cccc6F)=N5)cc4)CC3)OC2)cc1 (centres unmarked) [Example 44] | 4.61 | – | – |
| Fc1cccc(F)c1C1=NC(c2ccc(C3CCC4(CC3)OCC(Br)(c3ccc(Cl)cc3)O4)cc2)CO1 (centres unmarked) [Example 45] | – | 5.96 | 6.2 |
